These results are taken from patent US20220402867A1, “SULFO-SUBSTITUTED BIARYL COMPOUND OR SALT THEREOF, PREPARATION METHOD THEREFOR, AND USE THEREOF” (Shanghai Litedd Co., Ltd., priority 2019, published 2022).

The nature of series [1]: Pharmacokinetic (PK) assay in mice. The series is classed as in vivo. The following applies: CD-1 mice; for AUC(0-t) / Cmax / half-life / Vd / bioavailability: mouse, plasma; for Vd: read-out: Vss; for bioavailability: Po 5 mg/kg vs IV 1 mg/kg. In short, it runs like this:
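CD-1 mice (3 per group) were dosed IV at 1 mg/kg in 5% DMSO/40% PEG400/55% (20% 3-CD) or by oral gavage at 5 mg/kg in DMSO/1% methylcellulose (1:99). Saphenous blood was sampled from 0 to 24 h into EDTA-K2 tubes for plasma. Plasma levels were measured by UPLC-MS/MS, and PK parameters were calculated from them.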

The target of series [2] is T1, RORγt (RORγ-LBD chimeric receptor) (Homo sapiens, UniProt P51449).
T1 construct: host or cells: HEK293T
T1 sequence (P51449 269-508 limits assumed): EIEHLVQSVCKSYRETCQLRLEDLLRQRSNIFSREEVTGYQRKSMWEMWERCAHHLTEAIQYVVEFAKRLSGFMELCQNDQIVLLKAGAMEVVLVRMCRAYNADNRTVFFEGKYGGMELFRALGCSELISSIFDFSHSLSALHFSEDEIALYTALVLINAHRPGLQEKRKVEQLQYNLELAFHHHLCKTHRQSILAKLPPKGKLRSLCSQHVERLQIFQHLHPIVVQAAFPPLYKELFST
Briefly: Luciferase reporter gene assay of RORγt agonistic activity in HEK293T cells. Also on record: Emax: dose or concentration left out as unconfirmed. As to conditions: for EC50: HEK293T, GAL4 luciferase reporter, read-out: EC50; for Emax: HEK-293T. In kind it is cell-based. In short, it runs like this:
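HEK293T cells co-transfected with GAL4-RORγ-LBD (pBIND) and GAL4-driven luciferase reporter (pGL4.35), then treated with compounds (10-point 3-fold series; 10 mM top DMSO stock). Luminescence (Steady-Glo) normalised to positive and vehicle controls as % activity; EC50 by log-concentration fit.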
For orientation: A reporter such as luciferase makes a cellular process visible.

The target of another series is T2, GST-RORγ LBD (263-509) (Homo sapiens, UniProt P51449).
T2 construct: GST-RORγ LBD ((263-509) (produced at ChemPartner))
T2 sequence (P51449 263-509): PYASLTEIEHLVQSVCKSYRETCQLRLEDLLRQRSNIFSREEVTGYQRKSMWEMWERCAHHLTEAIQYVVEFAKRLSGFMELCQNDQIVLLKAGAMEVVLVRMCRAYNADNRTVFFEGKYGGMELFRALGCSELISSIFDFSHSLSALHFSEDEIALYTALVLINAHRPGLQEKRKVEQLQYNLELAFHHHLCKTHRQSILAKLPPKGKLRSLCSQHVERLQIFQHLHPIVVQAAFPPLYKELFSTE
Kind of series: TR-FRET assay of agonistic activity on RORγ receptor. In kind it is biochemical. As to conditions: for EC50: TR-FRET, GST-RORγ LBD with Biotin-SRC1; for Emax: maximum activation rate, TOP of fitted curve. A digest of the protocol: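 GST-RORγ LBD (75 nM solution) mixed 1:1 with Biotin-SRC1 (4 nM solution), then with Eu anti-GST and SA-APC; compounds in 10-point 3-fold series from 10 mM stock, duplicate.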

Molecules are shown by their SMILES. Where two headings read alike, the source gives them in different places.

For the compound `COCC(C(=O)Nc1ccc(-c2ccc(S(=O)(=O)C3CC3)cc2)c(C(F)(F)F)c1)c1ccc(S(C)(=O)=O)cc1` (single isomer, unassigned) [Example 43, (S)—N-(4′-(cyclopropylsulfonyl)-2-(trifluoromethyl)-[1,1′-biphenyl]-4-yl)-3-methoxy-2-(4-(methylsulfonyl)phenyl)propionamide or (R)—N-(4′-(cyclopropylsulfonyl)-2-(trifluoromethyl)-[1,1′-biphenyl]-4-yl)-3-methoxy-2-(4-(methylsulfonyl)phenyl)propanamide], the CL_obs in series [1] (IV 1 mg/kg, values marked **) was 4.31** mL/min/kg. For the same compound, in series [1] (IV 1 mg/kg), the AUC(0-t) came out at 3810 ng·h/mL, the highest level (Cmax) was 787 ng/mL and the half-life was 4.14 h. Moreover, the Vd in series [1] (IV 1 mg/kg, values marked *) is 1.38 L/kg. Further, the bioavailability in series [1] was found to be 89.1%. Also, in series [1] (Po 5 mg/kg), the AUC(0-t) was found to be 17100 ng·h/mL, the maximum concentration (Cmax) worked out at 3040 ng/mL and the half-life was 3.51 h. In series [2], the concentration for a half-maximal effect (EC50) amounted to 57 nM and the maximum response (Emax) came out at 64.1%. For the same compound, at GST-RORγ LBD (263-509), the EC50 came out at 6.2 nM and the Emax worked out at 194%.
In series [1] (IV 1 mg/kg), `CCS(=O)(=O)c1ccc(CC(=O)Nc2cc(Cl)c(-c3ccc(S(C)(=O)=O)cc3)c(Cl)c2)cc1` [Example 2, N-(2,6-dichloro-4′-(methylsulfonyl)-[1,1′-biphenyl]-4-yl)-2-(4-(ethylsulfonyl)phenyl)acetamide] gave a CL_obs of 426.2 mL/h/kg, an AUC(0-t) of 2250 ng·h/mL, a Cmax of 737 ng/mL and a half-life of 1.76 h. In addition, in series [1] (IV 1 mg/kg), the Vd was found to be 1.09 L/kg. Besides, in series [1], the bioavailability was 112%. Besides, in series [1] (Po 5 mg/kg), the AUC(0-t) is 12600 ng·h/mL, the peak concentration (Cmax) stood at 3030 ng/mL and the half-life is 2.46 h. Moreover, in series [2], the EC50 was found to be 19 nM and the Emax came out at 43%. In addition, on GST-RORγ LBD (263-509), the EC50 is 9.1 nM and the Emax stood at 210%.
On to `CCS(=O)(=O)c1ccc(-c2c(Cl)cc(NC(=O)Cc3ccc(S(C)(=O)=O)cc3)cc2Cl)cc1` [Example 4, N-(2,6-Dichloro-4′-(ethylsulfonyl)-[1,1′-biphenyl]-4-yl)-2-(4-(methylsulfonyl)phenyl)acetamide], for which, in series [2], the concentration for a half-maximal effect (EC50) turned out to be 17 nM and the maximal response (Emax) turned out to be 64%. On GST-RORγ LBD (263-509), the EC50 worked out at 9.6 nM and the Emax turned out to be 220%.
`CCS(=O)(=O)c1ccc(-c2c(Cl)cc(NC(=O)Cc3ccc(S(=O)(=O)CC)cn3)cc2Cl)cc1` [Example 5, N-(2,6-Dichloro-4′-(ethylsulfonyl)-[1,1′-biphenyl]-4-yl)-2-(5-(ethylsulfonyl)pyridin-2-yl)acetamide]: in series [1] (IV 1 mg/kg), the CL_obs stood at 1367 mL/h/kg, the exposure AUC(0-t) came out at 730 ng·h/mL, the Cmax turned out to be 1360 ng/mL and the half-life is 0.45 h. Besides, the Vd in series [1] (IV 1 mg/kg) is 0.893 L/kg. Also, the bioavailability in series [1] amounted to 38.8%. For the same compound, in series [1] (Po 5 mg/kg), the area under the curve AUC(0-t) was 1420 ng·h/mL, the concentration peaked (Cmax) at 1770 ng/mL and the half-life was 0.5 h. In addition, in series [2], the EC50 came out at 37 nM and the maximum response (Emax) worked out at 69.6%. At GST-RORγ LBD (263-509), this compound gave an EC50 of 8.5 nM and an Emax of 222%.
For the compound `CCS(=O)(=O)c1ccc(CC(=O)Nc2cc(Cl)c(-c3ccc(S(C)(=O)=O)cc3)c(Cl)c2)nc1` [Example 8, N-(2,6-Dichloro-4′-(methylsulfonyl)-[1,1′-biphenyl]-4-yl)-2-(5-(ethylsulfonyl)pyridin-2-yl)acetamide], the EC50 in series [2] was determined as 44 nM; at GST-RORγ LBD (263-509), 10.1 nM. For the same compound, the Emax stood at 37.9% in series [2] and 170% at GST-RORγ LBD (263-509).
Regarding `CCS(=O)(=O)c1ccc(-c2c(Cl)cc(NC(=O)Cc3ccc(S(C)(=O)=O)cn3)cc2Cl)cc1` [Example 9, N-(2,6-Dichloro-4′-(ethylsulfonyl)-[1,1′-biphenyl]-4-yl)-2-(5-(methylsulfonyl)pyridin-2-yl)acetamide], the EC50 worked out at 53 nM in series [2] and 22.2 nM on GST-RORγ LBD (263-509). The maximum response (Emax) in series [2] stood at 51.5%; on GST-RORγ LBD (263-509) it was 160%.
For `CS(=O)(=O)c1ccc(CC(=O)Nc2cc(Cl)c(-c3ccc(S(=O)(=O)C4CC4)cc3)c(Cl)c2)cc1` [Example 11, N-(2,6-Dichloro-4′-(cyclopropylsulfonyl)-[1,1′-biphenyl]-4-yl)-2-(4-(methylsulfonyl)phenyl)acetamide], in series [1] (IV 1 mg/kg), the CL_obs was 128.6 mL/h/kg, the AUC(0-t) came out at 7250 ng·h/mL, the Cmax is 709 ng/mL and the half-life was 6.33 h. Further, in series [1] (IV 1 mg/kg), the Vd was 1.04 L/kg. In addition, the bioavailability in series [1] came to 86.1%. In series [1] (Po 5 mg/kg), the AUC(0-t) turned out to be 31200 ng·h/mL, the Cmax stood at 3810 ng/mL and the half-life was 4.52 h. Further, in series [2], the half-maximal effective concentration (EC50) was 15 nM and the Emax was determined as 45%. At GST-RORγ LBD (263-509), this compound had an EC50 of 6.8 nM and an Emax of 167%.
In series [1] (IV 1 mg/kg), `CCS(=O)(=O)c1ccc(-c2c(Cl)cc(NC(=O)C(COC)c3ccc(S(=O)(=O)CC)cc3)cc2Cl)cc1` (stereo not shown) [Example 13, N-(2,6-Dichloro-4′-(ethylsulfonyl)-[1,1′-biphenyl]-4-yl)-2-(4-(ethylsulfonyl)phenyl)-3-methoxypropionamide] gave a CL_obs of 1264.7 mL/h/kg, an AUC(0-t) of 786 ng·h/mL, a Cmax of 1320 ng/mL and a half-life of 0.63 h. In series [1] (IV 1 mg/kg), the Vd was 0.713 L/kg. Moreover, in series [1], the bioavailability was determined as 24.2%. Further, in series [1] (Po 5 mg/kg), the AUC(0-t) was 952 ng·h/mL, the highest level (Cmax) was 1220 ng/mL and the half-life was 0.54 h. Moreover, in series [2], the concentration giving a half-maximal response (EC50) was found to be 69 nM and the Emax came out at 71.9%. On GST-RORγ LBD (263-509), this compound came in with a half-maximal effective concentration (EC50) of 12.1 nM and a maximal effect (Emax) of 171%.
As for `CCS(=O)(=O)c1ccc(C(COC)C(=O)Nc2cc(Cl)c(-c3ccc(S(=O)(=O)C4CC4)cc3)c(Cl)c2)cc1` (stereo not shown) [Example 16, N-(2,6-Dichloro-4′-(cyclopropylsulfonyl)-[1,1′-biphenyl]-4-yl)-2-(4-(ethylsulfonyl)phenyl)-3-methoxypropionamide], in series [1] (IV 1 mg/kg, values marked **), the CL_obs is listed as 4.51** mL/min/kg. Moreover, in series [1] (IV 1 mg/kg), the AUC(0-t) is 3660 ng·h/mL, the Cmax is 1170 ng/mL and the half-life was 3.88 h. In addition, the Vd in series [1] (IV 1 mg/kg, values marked *) turned out to be 1.1 L/kg. Further, the bioavailability in series [1] worked out at 56.3%. In series [1] (Po 5 mg/kg), the area under the curve AUC(0-t) stood at 10300 ng·h/mL, the highest concentration (Cmax) was 1420 ng/mL and the half-life was 3.3 h. Further, in series [2], the half-maximal effective concentration (EC50) amounted to 181 nM and the Emax is 85.6%. In addition, on GST-RORγ LBD (263-509), the EC50 was found to be 16.6 nM and the maximum response (Emax) is 187%.
`COCC(C(=O)Nc1cc(Cl)c(-c2ccc(S(=O)(=O)C3CC3)cc2)c(Cl)c1)c1ccc(S(C)(=O)=O)cc1` (stereo not shown) [Example 20, N-(2,6-Dichloro-4′-(cyclopropylsulfonyl)-[1,1′-biphenyl]-4-yl)-3-methoxy-2-(4-(methylsulfonyl)phenyl)propionamide]: the CL_obs in series [1] (IV 1 mg/kg, values marked **) is 1.98** mL/min/kg. In series [1] (IV 1 mg/kg), the AUC(0-t) came to 8280 ng·h/mL, the highest concentration (Cmax) stood at 1160 ng/mL and the half-life is 4.85 h. The Vd in series [1] (IV 1 mg/kg, values marked *) was 0.75 L/kg. Further, the bioavailability in series [1] is 57.3%. Moreover, in series [1] (Po 5 mg/kg), the AUC(0-t) came out at 21600 ng·h/mL, the Cmax worked out at 1660 ng/mL and the half-life is 6.95 h. Also, in series [2], the EC50 came to 81 nM and the Emax is 63.5%. Further, on GST-RORγ LBD (263-509), a half-maximal response (EC50) required 19.5 nM and the Emax amounted to 192%.

One may read the AUC(0-t) as exposure summed from dosing to a finite time, without extrapolation to infinity. In general, Cmax refers to the highest concentration seen after dosing. A word on the half-life: it is the time in which the quantity being followed falls by half. Usually EC50 stands for the concentration that produces a half-maximal response. In general, Emax refers to the maximal effect, on the per cent scale that the assay sets.
